Test results taken from publication PMC13289030, “Qualification of the human Reconstructed Intestine Micronuclei Cytome assay for site-of-contact genotoxic hazard identification” (NAM journal, 2025).
In brackets after ≈: the same amount, converted by molar mass. Entries after “also recorded” stand apart in the source; their conditions may differ. Like-named read-outs stand apart in the source and are kept apart here. Where a SMILES comes first, the peptide text is derived from it.

Assays:
[1] = system: EpiIntestinal™ microtissues; test: Cytotoxicity / relative cell count (RCC) of dissociated EpiIntestinal microtissues; conditions: for Cytotoxicity / cell viability (result in words) / Cytotoxicity: 10-day exposure; for Cytotoxicity / cell viability (result in words): tested doses
[2] = published genotoxic profile; ref Kirkland et al., 2016; EFSA; cited from earlier work
[3] = cited from earlier work
[4] = system: EpiIntestinal™ microtissues; test: RICyt assay: micronuclei (MN) cytome scoring in EpiIntestinal microtissues after 10-day repeated apical exposure
[5] = Test material solubility limit for top test concentration; type: physicochemical; conditions: for solubility: read-out: Concentration above which test material is insoluble (top test concentration)
[6] = system: EpiIntestinal™ microtissues
[7] = system: topoisomerase II; design: method as in Maralhas et al., 2006; conditions: ref Maralhas et al., 2006; cited from earlier work
[8] = system: EpiIntestinal™ microtissues; remark: listed apart in the source
[9] = system: Caco-2; conditions: ref Schrenk et al., 2022; cited from earlier work
[10] = system: EpiIntestinal™ microtissues; conditions: cited from earlier work
[11] = published genotoxic profile, ref Kirkland et al., 2016, EFSA
[12] = 10-day exposure, relative to solvent control and historical negative control range (≤2.4 %)
[13] = 10-day exposure, positive = significant, dose-dependent %MN increase above historical negative range (>2.4 %)

Row | Compound | Cytotoxicity / cell viability (result in words) [1] | In vitro genotoxicity tests [2] | In vivo genotoxicity tests [3, 11] | Karyorrhectic cells (cytome analysis) ([4]; 10-day exposure) | %MN induction (result in words) [4, 12] | In vivo genotoxicity tests ([3]; in vivo) | other results
1 | O=Cc1ccc(CO)o1 [5-Hydroxymethyl furfural, 5-Hydroxymethylfurfural] | Cytotoxicity was observed with increasing doses | + Comet and SCE - for MN | - MN | increase in karyorrhectic cell population though not statistically significant | consistently low without exceeding the historical negative range |  | RICyt outcome (genotoxic classification) [4, 13]: Negative; RICyt outcome (genotoxic classification) ([4]; 10-day exposure, positive = significant, dose-dependent %MN increase above historical negative range (>2.4 %), listed as 5-HMF): clear negative
2 | COC(=O)[C@H](Cc1ccccc1)NC(=O)[C@@H](N)CC(=O)O [Aspartame] (H-Asp-Phe-OMe) | did not produce significant %MN and cytotoxicity | - CA and MN - SCE | - MN, comet and CA |  | did not produce significant %MN |  | RICyt outcome (genotoxic classification) [4, 13]: Negative; RICyt outcome (genotoxic classification) ([4]; 10-day exposure, positive = significant, dose-dependent %MN increase above historical negative range (>2.4 %), listed as aspartame): clear negative
3 | COc1cc(/C=C/C(=O)CC(=O)/C=C/c2ccc(O)c(OC)c2)ccc1O [Curcumin] |  |  |  | increase in karyorrhectic cells | no significant formation of MN |  | Cytotoxicity ([1]; at higher doses / top two concentrations): 15–20%; solubility ([5]; in solvent/culture media): 50 µg/mL (≈ 136 µM)
4 | CCOS(C)(=O)=O [Ethyl methanesulfonate] |  |  |  |  |  | + MN, comet and CA | Cytotoxicity / cell viability (result in words) [6]: no observable cytotoxicity
5 | C=CCc1ccc(O)c(OC)c1 [Eugenol] | cytotoxicity observed in the tested doses |  |  | consistent increase in karyorrhectic cell population |  | + MN only at very high doses. Equivocal | Topoisomerase II activity [7]: could inhibit topoisomerase II activity; Genotoxicity in vivo ([3]; in vivo): genotoxic positive; %MN induction (result in words) ([4]; 10-day exposure, relative to solvent control and historical negative control range (≤2.4 %), listed as EUG): very close to the established 95 % upper confident limits; RICyt outcome (genotoxic classification) [4, 13]: Equivocal
6 | Nc1nc(N)nc(N)n1 [Melamine] | No genotoxicity nor cytotoxicity were detected |  |  |  | not significant and below the historical negative range |  | solubility ([5]; in solvent/culture media): 500 µg/mL (≈ 3960 µM)
7 | CC(C)=CCC/C(C)=C/CC/C(C)=C/CC/C(C)=C/CC/C(C)=C/CC/C(C)=C/CC/C(C)=C/CC1=C(C)C(=O)c2ccccc2C1=O [Menaquinone 7] | no significant MN induction nor cytotoxicity |  |  |  | no significant MN induction |  | Other nuclear anomalies (cytome analysis) ([4]; 10-day exposure): not detected; Concentration above which test material is insoluble (top test concentration) ([5]; in solvent/culture media): 1000 µg/mL
8 | C[C@H]1C(=O)O[C@@H]2CCN3CC=C(COC(=O)[C@](C)(O)[C@]1(C)O)[C@H]23 [Monocrotaline] |  |  |  |  |  | + DNA adduct, DNA crosslinking and MN | %MN increment ([8]; human): 2.53%; Gut permeability [9]: moderate gut permeability; Cytotoxicity / cell viability (result in words) [6]: without obvious cytotoxicity
9 | CCN(N=O)C(N)=O [N-Ethyl-N-nitrosourea] |  | + MN, CA, MLA, HPRT mutations and UDS | + CA, MN, comet | non-significant increase in karyorrhectic cells | statistically significant increases in MN in a dose dependent manner |  | Cytotoxicity ([1]; across tested concentrations (ENU up to 150 µg/ml; GA up to 25 µg/ml)): ≤ 15%; %MN induction (result in words) ([4]; 10-day exposure, relative to solvent control and historical negative control range (≤2.4 %), listed as ENU): positive induction of MN
10 | CC(=O)O[C@H]1C(=O)[C@@]2(C)[C@H]([C@H](OC(=O)c3ccccc3)[C@]3(O)C[C@H](OC(=O)[C@H](O)[C@@H](NC(=O)c4ccccc4)c4ccccc4)C(C)=C1C3(C)C)[C@]1(OC(C)=O)CO[C@@H]1C[C@@H]2O [Paclitaxel] | decrease in cell viability at the top two exposed doses | + MN, polyploidy in a CA test and in MLA | + MN in bone marrow and liver | non-significant but dose dependent increase in karyorrhectic cell population | statistically significant increase in %MN; also recorded: positive induction of MN |  | RICyt outcome (genotoxic classification) [4, 13]: true positive
11 | c1ccc2c(c1)cc1ccc3cccc4ccc2c1c34 [benzo(a)pyrene] |  |  |  |  |  |  | MN induction / genotoxicity in RICyt platform [10]: genotoxicity was successfully detected
12 | CC(C)[C@@H]1CC[C@@H](C)C[C@H]1O [d,l-Menthol, D,L-MENTHOL] |  |  |  |  |  | - | %MN induction (result in words) [8]: low level of MN which fell within 95 % confident limit of the historical negative control; Cytotoxicity / cell viability (result in words) [6]: no significant impact on cell viability; Concentration above which test material is insoluble (top test concentration) [5]: 500 µg/mL
13 | CC[C@]1(O)C[C@@H]2CN(CCc3c([nH]c4ccccc34)[C@@](C(=O)OC)(c3cc4c(cc3OC)N(C)[C@H]3[C@@](O)(C(=O)OC)[C@H](OC(C)=O)[C@]5(CC)C=CCN6CC[C@]43[C@@H]65)C2)C1 [vinblastine] |  |  |  |  |  |  | MN induction / genotoxicity in RICyt platform ([10]; previous publication, ref Lim et al., 2022): positive induction of MN
14 | C/C=C\c1cc(OC)c(OC)cc1OC [β-asarone] |  | + MN, comet and SCE | MN negative |  |  |  | RICyt outcome (genotoxic classification) [8]: Negative; Cytotoxicity / cell viability (result in words) [6]: Increases in cytotoxicity at the top two doses
15 | Aflatoxin B1 |  |  |  |  |  | + MN, CA, UDS − comets | Loss/reduction in cell viability [1]: ~40%; %MN induction (result in words) [4]: significant and dose-dependent formation of MN; RICyt outcome (genotoxic classification) [4]: genotoxicity was successfully detected; also recorded: Positive
